According to patent US20240317760A1, “TRK KINASE INHIBITOR COMPOUND AND USE THEREOF” (HENAN MEDINNO PHARMACEUTICAL TECHNOLOGY CO., LTD., priority 2021, published 2024):

Key:
Type in all cases: biochemical
[1] = molecular target: T1, TRKB (Homo sapiens, UniProt Q16620); test: Determination of inhibitory activity against TRKB kinase (ADP-Glo Kinase Assay); details: ATP 20 μM, Poly (4:1 Glu, Tyr) Peptide 0.03 mg/ml
T1 construct: purchased SignalChem N17-11G
Protocol: (§1) Assay: Determination of Inhibitory Activity Against TRKA/B/C Kinases
(§2) 1× volume of 5× kinase reaction buffer and 4× volume of water; 5 mM MgCl2; and 1 mM DTT.
(§3) • 1). Gradiently diluting a compound 4-fold in a dilution plate with DMSO, with a starting compound concentration of 1000 nM. • 2). Diluting the compound 50-fold into 1× kinase reaction buffer and shaking it on a shaker for 20 minutes. • 3). Formulating 2× kinase with 1× of enzyme reaction buffer. • 4). Adding 2 μl kinase (formulated in step 3) to each well of the reaction plate. • 5). Adding 1 μl of the compound diluted in buffer to each well, sealing the plate with a sealing membrane and centrifuging the plate at 1000 g for 30 seconds and leaving it at room temperature for 10 minutes. • 6). Formulating 4×ATP & sub mixture with 1× enzyme reaction buffer and adding 1 μl of 4×ATP & sub mixture to the reaction plate. • 7). Sealing the plate with a sealing membrane and centrifuging the plate at 1000 g for 30 seconds and allowing it to react at room temperature for 60 minutes. • 8). Transferring 4 μl of ADP-Glo to 384 reaction plate and centrifuging the plate at 1000 rpm/min for 1 min, and then incubating it at 25° C. for 40 min. • 9). Transferring 8 μl of Detection solution to 384 reaction plate and centrifuging the plate at 1000 rpm/min for 1 min and incubating it at 25° C. for 40 min. • 10) Reading the RLU (Relative luminescence unit) signal using a Biotek multifunctional plate reader. The signal intensity was used to characterize the activity degree of kinase.
(§4) The IC50 (half inhibition concentration) of a compound was obtained using the following non-linear fitting equation, wherein data analysis was performed using Graphpad 6.0 software.
(§5) Y=Bottom+(Top−Bottom)/(1+10^((Log IC50−X)*Hill Slope)) • X: log value of compound concentration; and Y: inhibition rate (% inhibition)
(§6) Data were exported from Biotek and analyzed manually. The ratios were converted to inhibition rates and IC50 was calculated by Prism GraphPad 6.0 from the inhibition rates. IC50 was calculated again by the ratios to verify accuracy of the results.

[2] = molecular target: T2, TRKA (Homo sapiens, UniProt P04629); test: Determination of inhibitory activity against TRKA kinase (ADP-Glo Kinase Assay); details: ATP 5 μM, Poly (4:1 Glu, Tyr) Peptide 0.03 mg/ml
T2 construct: purchased Carna 08-186
Protocol: as §1, §2, §3, §4, §5, §6

[3] = molecular target: T3, TRKC (Homo sapiens, UniProt Q16288); test: Determination of inhibitory activity against TRKC kinase (ADP-Glo Kinase Assay); details: ATP 5 μM, Poly (4:1 Glu, Tyr) Peptide 0.03 mg/ml
T3 construct: purchased Carna 08-196
Protocol: as §1, §2, §3, §4, §5, §6

T2 sequence (P04629 33-796): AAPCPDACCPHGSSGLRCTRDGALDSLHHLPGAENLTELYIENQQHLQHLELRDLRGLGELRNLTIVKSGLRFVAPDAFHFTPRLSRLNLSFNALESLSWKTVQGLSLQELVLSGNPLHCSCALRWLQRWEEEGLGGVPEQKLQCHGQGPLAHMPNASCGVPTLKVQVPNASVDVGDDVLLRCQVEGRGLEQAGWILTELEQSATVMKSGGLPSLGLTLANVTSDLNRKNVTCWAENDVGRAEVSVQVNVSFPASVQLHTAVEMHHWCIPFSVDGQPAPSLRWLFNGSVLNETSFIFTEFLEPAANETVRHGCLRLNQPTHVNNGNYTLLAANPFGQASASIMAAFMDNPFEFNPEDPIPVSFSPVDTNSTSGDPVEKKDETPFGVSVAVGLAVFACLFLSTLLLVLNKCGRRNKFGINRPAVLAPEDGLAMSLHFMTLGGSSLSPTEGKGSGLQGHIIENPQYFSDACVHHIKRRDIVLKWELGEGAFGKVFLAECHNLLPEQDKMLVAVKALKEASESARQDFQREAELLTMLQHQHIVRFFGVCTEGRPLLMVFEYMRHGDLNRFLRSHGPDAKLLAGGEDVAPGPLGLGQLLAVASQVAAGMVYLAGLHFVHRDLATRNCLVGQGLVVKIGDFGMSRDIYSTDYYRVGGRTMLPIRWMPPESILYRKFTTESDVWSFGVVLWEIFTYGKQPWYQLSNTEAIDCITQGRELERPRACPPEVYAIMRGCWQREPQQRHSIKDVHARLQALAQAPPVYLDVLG
T1 sequence (Q16620 32-822): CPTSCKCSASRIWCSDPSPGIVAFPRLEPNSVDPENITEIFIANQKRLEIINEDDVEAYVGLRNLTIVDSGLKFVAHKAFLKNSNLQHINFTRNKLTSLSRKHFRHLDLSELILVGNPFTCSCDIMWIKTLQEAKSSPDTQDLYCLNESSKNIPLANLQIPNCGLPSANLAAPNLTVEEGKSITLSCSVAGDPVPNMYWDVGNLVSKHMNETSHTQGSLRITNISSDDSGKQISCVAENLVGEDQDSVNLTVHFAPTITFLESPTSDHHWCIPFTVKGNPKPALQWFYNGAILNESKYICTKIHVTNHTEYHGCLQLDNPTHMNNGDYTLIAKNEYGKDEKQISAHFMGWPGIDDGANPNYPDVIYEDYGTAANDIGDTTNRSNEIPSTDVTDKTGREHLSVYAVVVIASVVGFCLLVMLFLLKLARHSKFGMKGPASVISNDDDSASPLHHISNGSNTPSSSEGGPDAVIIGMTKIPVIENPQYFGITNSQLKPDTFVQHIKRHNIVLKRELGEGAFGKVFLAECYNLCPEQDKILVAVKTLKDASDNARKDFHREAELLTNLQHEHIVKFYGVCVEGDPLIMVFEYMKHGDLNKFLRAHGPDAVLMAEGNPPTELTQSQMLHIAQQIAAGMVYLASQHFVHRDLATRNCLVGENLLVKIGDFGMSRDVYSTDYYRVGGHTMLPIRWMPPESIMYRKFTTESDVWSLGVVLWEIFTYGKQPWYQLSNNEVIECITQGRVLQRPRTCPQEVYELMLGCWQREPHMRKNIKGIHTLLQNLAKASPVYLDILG
T3 sequence (Q16288 32-839): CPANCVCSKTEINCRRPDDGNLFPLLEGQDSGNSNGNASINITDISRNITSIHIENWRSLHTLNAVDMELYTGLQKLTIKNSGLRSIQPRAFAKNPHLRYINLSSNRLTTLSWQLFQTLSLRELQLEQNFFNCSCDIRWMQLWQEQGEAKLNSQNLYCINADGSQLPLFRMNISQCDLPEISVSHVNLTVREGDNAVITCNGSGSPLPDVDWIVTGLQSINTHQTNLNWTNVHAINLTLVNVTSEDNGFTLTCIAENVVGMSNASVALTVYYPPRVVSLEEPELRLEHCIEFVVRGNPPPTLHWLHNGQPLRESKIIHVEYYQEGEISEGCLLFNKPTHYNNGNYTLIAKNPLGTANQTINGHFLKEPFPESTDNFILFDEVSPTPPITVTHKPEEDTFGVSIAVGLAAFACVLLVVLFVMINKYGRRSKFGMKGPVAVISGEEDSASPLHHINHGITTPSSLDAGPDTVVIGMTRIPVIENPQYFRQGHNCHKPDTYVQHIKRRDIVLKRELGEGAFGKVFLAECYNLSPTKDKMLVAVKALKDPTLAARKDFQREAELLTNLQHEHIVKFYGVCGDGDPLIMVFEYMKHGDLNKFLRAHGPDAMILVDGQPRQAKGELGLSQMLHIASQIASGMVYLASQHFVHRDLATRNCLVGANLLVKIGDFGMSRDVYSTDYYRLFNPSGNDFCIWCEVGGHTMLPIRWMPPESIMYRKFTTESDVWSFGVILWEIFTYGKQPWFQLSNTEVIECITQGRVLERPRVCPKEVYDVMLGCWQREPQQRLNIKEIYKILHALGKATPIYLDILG

Compound	IC50 [1] [nM]	IC50 [2] [nM]	IC50 [3] [nM]
CC(Oc1ccc2[nH]nc(-c3nc4c([nH]3)CN(CC3CCCNC3)C4)c2c1)c1cc(F)cc(F)c1 (stereo not drawn) [Example 24, 5-(1-(3,5-Difluorophenyl)ethoxy)-3-(5-(piperidin-3-ylmethyl)-1,4,5,6-tetrahydropyrrolo[3,4-d]imidazol-2-yl)-1H-indazole]	5.3	1.5	2.2
CC(Oc1ccc2[nH]nc(-c3nc4c([nH]3)CN(CC3CCCCN3)C4)c2c1)c1cc(F)cc(F)c1 (stereo not drawn) [Example 25, 5-(1-(3,5-Difluorophenyl)ethoxy)-3-(5-(piperidin-2-ylmethyl)-1,4,5,6-tetrahydropyrrolo[3,4-d]imidazol-2-yl)-1H-indazole]	6.8	1.8	1.6
CC(Oc1ccc2[nH]nc(-c3nc4c([nH]3)CN(CC3CN(C)C3)C4)c2c1)c1cc(F)cc(F)c1 (stereo not drawn) [Example 26, 5-(1-(3,5-Difluorophenyl)ethoxy)-3-(5-((1-methylazetidin-3-yl)methyl)-1,4,5,6-tetrahydropyrrolo[3,4-d]imidazol-2-yl)-1H-indazole]	5.5	2.8	2
CC(Oc1ccc2[nH]nc(-c3nc4c([nH]3)CN(CC3CCN(C5CCC5)CC3)C4)c2c1)c1cc(F)cc(F)c1 (stereo not drawn) [Example 27, 3-(5-((1-Cyclobutylpiperidin-4-yl)methyl)-1,4,5,6-tetrahydropyrrolo[3,4-d]imidazol-2-yl)-5-(1-(3,5-difluorophenyl)ethoxy)-1H-indazole]	3.1	0.42	3.5
CC(Oc1ccc2[nH]nc(-c3nc4c([nH]3)CN(CC3(C)CCN(C(C)C)CC3)C4)c2c1)c1cc(F)cc(F)c1 (stereo not drawn) [Example 28]	3.9	0.53	1.4
CC(Oc1ccc2[nH]nc(-c3nc4c([nH]3)CN(C(=O)N3CCN(C)CC3)C4)c2c1)c1cc(F)cc(F)c1 (stereo not drawn) [Example 29, (2-(5-(1-(3,5-Difluorophenyl)ethoxy)-1H-indazol-3-yl)-4,6-dihydropyrrolo[3,4-d]imidazol-5(1H)-yl)(4-methylpiperazin-1-yl)ketone]	2.2	1.5	1.8
CC(Oc1ccc2[nH]nc(-c3nc4c([nH]3)CN(C(=O)OC3CCN(C)C3)C4)c2c1)c1cc(F)cc(F)c1 (stereo not drawn) [Example 30, 1-Methylpyrrolidin-3-yl 2-(5-(1-(3,5-difluorophenyl)ethoxy)-1H-indazol-3-yl)-4,6-dihydropyrrolo[3,4-d]imidazole-5(1H)-carboxylate]	2	0.94	1.2
CC(Oc1ccc2[nH]nc(-c3nc4c([nH]3)CN(C(=O)OC3CN(C)C3)C4)c2c1)c1cc(F)cc(F)c1 (stereo not drawn) [Example 31, 1-Methylazetidin-3-yl 2-(5-(1-(3,5-difluorophenyl)ethoxy)-1H-indazol-3-yl)-4,6-dihydropyrrolo[3,4-d]imidazole-5(1H)-carboxylate]	4.3	1.1	1.1
CC(Oc1ccc2[nH]nc(-c3nc4c([nH]3)CN(C(=O)OC3CCCN(C)C3)C4)c2c1)c1cc(F)cc(F)c1 (stereo not drawn) [Example 33, 1-Methylpiperidin-3-yl 2-(5-(1-(3,5-difluorophenyl)ethoxy)-1H-indazol-3-yl)-4,6-dihydropyrrolo[3,4-d]imidazole-5(1H)-carboxylate]	4.1	0.46	1.2
CC(Oc1ccc2[nH]nc(-c3nc4c([nH]3)CN(C(C)C3CN(C)C3)C4)c2c1)c1cc(F)cc(F)c1 (stereo not drawn) [Example 34, 5-(1-(3,5-Difluorophenyl)ethoxy)-3-(5-(1-(1-methylazetidin-3-yl)ethyl)-1,4,5,6-tetrahydropyrrolo[3,4-d]imidazol-2-yl)-1H-indazole]	2	4.6	4.5
CCN1CCC(N2Cc3nc(-c4n[nH]c5ccc(OC(C)c6cc(F)cc(F)c6)cc45)[nH]c3C2)CC1 (stereo not drawn) [Example 38, 5-(1-(3,5-Difluorophenyl)ethoxy)-3-(5-(1-ethylpiperidin-4-yl)-1,4,5,6-tetrahydropyrrolo[3,4-d]imidazol-2-yl)-1H indazole]	1.9	4.1	3.6
CC(Oc1ccc2[nH]nc(-c3nc4c([nH]3)CN(C3CCN(C)C3)C4)c2c1)c1cc(F)cc(F)c1 (stereo not drawn) [Example 41, 5-(1-(3,5-Difluorophenyl)ethoxy)-3-(5-(1-methylpyrrolidin-3-yl)-1,4,5,6-tetrahydropyrrolo[3,4-d]imidazol-2-yl)-1H indazole]	3	7.4	7.7
CC(Oc1ccc2[nH]nc(-c3nc4c([nH]3)CN(CC3CCN(C)CC3)C4)c2c1)c1cc(F)cc(C#N)c1 (stereo not drawn) [Example 47]	8.9	14.2	8.6
CCC(Oc1ccc2[nH]nc(-c3nc4c([nH]3)CN(CC3CCN(C)CC3)C4)c2c1)c1cc(F)cc(F)c1 (stereo not drawn) [Example 48, 5-(1-(3,5-Difluorophenyl)propoxy)-3-(5-((1-methylpiperidin-4-yl)methyl)-1,4,5,6-tetrahydropyrrolo[3,4-d]imidazol-2-yl)-1 H-indazole]	4.2	4.5	6.1

Now those with a lower IC50 [1], led by results:

IC50 [1] [nM]	IC50 [2] [nM]	IC50 [3] [nM]	Compound
0.63	0.23	0.43	C[C@@H](Oc1ccc2[nH]nc(-c3nc4c([nH]3)CN(CC3CCN(C)CC3)C4)c2c1)c1cc(F)cc(F)c1 [Example 32]
1	6.8	2.3	CC(Oc1ccc2[nH]nc(-c3nc4c([nH]3)CN(C3CC5(C3)CN(C)C5)C4)c2c1)c1cc(F)cc(F)c1 (stereo not drawn) [Example 39, 5-(1-(3,5-Difluorophenyl)ethoxy)-3-(5-(2-methyl-2-azaspiro[3.3]heptan-6-yl)-1,4,5,6-tetrahydropyrrolo[3,4-d]imidazol-2-yl)-1H-indazole]
1.1	1	1.5	CC(Oc1ccc2[nH]nc(-c3nc4c([nH]3)CN(CC3CCCN3)C4)c2c1)c1cc(F)cc(F)c1 (stereo not drawn) [Example 42, 5-(1-(3,5-Difluorophenyl)ethoxy)-3-(5-(pyrrolidin-2-ylmethyl)-1,4,5,6-tetrahydropyrrolo[3,4-d]imidazol-2-yl)-1H-indazole]
1.4	1.9	2.9	CCN1CCCC(N2Cc3nc(-c4n[nH]c5ccc(OC(C)c6cc(F)cc(F)c6)cc45)[nH]c3C2)C1 (stereo not drawn) [Example 43, 5-(1-(3,5-Difluorophenyl)ethoxy)-3-(5-(1-ethylpiperidin-3-yl)-1,4,5,6-tetrahydropyrrolo[3,4-d]imidazol-2-yl)-1H indazole]
0.64	1.4	1.8	CC(Oc1ccc2[nH]nc(-c3nc4c([nH]3)CN(C3CC(N(C)C)C3)C4)c2c1)c1cc(F)cc(F)c1 (stereo not drawn) [Example 44]
0.83	1.6	1.7	CC(Oc1ccc2[nH]nc(-c3nc4c([nH]3)CN(C3CCCC(N(C)C)C3)C4)c2c1)c1cc(F)cc(F)c1 (stereo not drawn) [Example 45, 3-(2-(5-(1-(3,5-difluorophenyl)ethoxy)-1H-indazol-3-yl)-4,6-dihydropyrrolo[3,4-d]imidazol-5(1H)-yl)-N,N-dimethyl cyclohexan-1-amine]
1.4	10.6	2.9	CC(Oc1ccc2[nH]nc(-c3nc4c([nH]3)CN(C3CCC(N(C)C)C3)C4)c2c1)c1cc(F)cc(F)c1 (stereo not drawn) [Example 46, 3-(2-(5-(1-(3,5-Difluorophenyl)ethoxy)-1H-indazol-3-yl)-4,6-dihydropyrrolo[3,4-d]imidazol-5(1H)-yl)-N,N-dimethyl cyclopentan-1-amine]
